The results in this text go back to patent US20250368639A1, “SOLID FORMS OF A COMPOUND FOR TREATING OR PREVENTING HYPERURICEMIA OR GOUT” (ATOM THERAPEUTICS CO., LTD, priority 2022, published 2025).

In brackets after ≈: the same amount, converted by molar mass.

Common to all, as to format: physicochemical
A short description of data set [1]: Dynamic vapor sorption/desorption (DVS). The settings on record: 25° C., 85% RH. The method, then: Moisture sorption/desorption data were collected on a SMS DVS intrinsic Vapor Sorption Analyzer under a nitrogen purge. The DVS experiment generally includes a moisture sorption step and a moisture desorption step. […] In other words, the sample is considered to have reached an equilibrium between moisture sorption and desorption under the relative humidity when dm/dt≤0.01%. The sample was maintained at the temperature of 25° C. with relative humidity varied from 0% to 95%, and back to 0% at an increment of 5% RH each step.

Data set [2] is described as follows: Solubility in water, buffers and bio-relevant media (37° C., 24 h shaking, HPLC). The conditions noted are these: for Solubility: 37° C., 24 h; for Appearance / solubility in water: shaken about 24 hours, compared with Form 1. The procedure: The solubility of Form 1, Form 2, Form 5D, Form 6, Form 8, and Form 11 was analyzed in water, 0.1NaqueousHCl, pH4.5 acetate buffer solution, pH6.8 phosphate buffer solution, simulated gastric fluid (SGF), Fasted State Simulated Intestinal Fluid (FaSSIF), and Fed State Simulated Intestinal Fluid (FeSSIF).
About 5 mg or 10 mg of sample was weighed out into each vial and mixed with about 5 ml of medium to form a solution. The target concentration for the potassium salt in water was 2 mg/ml; and the target concentration for all other forms were 1 mg/mL. All samples were kept shaking at 200 rounds per minute (rpm) under 37° C. for 24 hours. The pH value of these samples were determined after shaking for 24 hours. Subsequently, they were centrifuged at the speed of 12000 rpm for 2 mins. The supernatant was diluted with methanol as necessary, and the concentrations were determined by HPLC. When the solubility of potassium salt was tested in water, the supernatant was diluted 100 times, while no other samples were diluted. The HPLC analysis utilizes Agilent Eclipse XDB-C8 4.6*150 mm, 5 μm column at 40° C., a mobile phase of 0.1% TFA: ACN=70:30, an injection volume of 10 μl, a flow rate of 1.0 ml/min, a diluent of methanol, and a detection wavelength of 234 nm.

Data set [3] in a line: Slurry stability in purified water (XRPD). The conditions noted are these: stirred overnight at room temperature. The procedure:
About 30 mg of Form land Form 5D, Form 6, and Form 8 were mixed with about 2.5 ml of purified water, and the mixtures were stirred for overnight at room temperature. The wet solids were isolated by centrifugation, and further dried in vacuum for 2.5 hours before being analyzed with XRPD.

A short description of data set [4]: Solid state stability under stress conditions (XRPD, HPLC). The conditions noted are these: closed vial about 60° C.; closed vial about 40° C./75% RH; 1 week and 2 weeks. The method, then: Form 1. Form 2, Form 6, Form 8, and Form 11 were each placed under following stress conditions: (1) in a closed vial at a temperature of about 60° C., and (2) in a closed vial at a temperature of about 40′° C. and a humidity of about 75% RH. The solids were analyzed with XRPD at 1 week and 2 weeks intervals.
Additionally, all forms were analyzed with HPLC for impurity at the 1 week and 2 weeks intervals. In a typical analysis, about 5 mg of forms were each dissolved in 10 ml of diluents with the aid of sonication for 2 minutes. THF was used as the diluent for Form 1, and methanol was used as the diluent for Form 6, Form 8, and Form 11. The HPLC analysis utilized Agilent Eclipse XDB-C18 4.6*150 mm. 3.5 μm at 30° C., a mobile phase of a gradient between 0.1% H3PO4 and acetonitrile (9:1 to 2:8 to 9:1), an injection volume of 10 μl, a flow rate of 1.0 ml/min, and a detection wavelength of 214 nm.
Form 2 was further subject to the stability test in an open vial at 40° C. and a relative humidity of 75% RH.

In the case of `CCc1nc2ccccn2c1C(=O)c1cc(Br)c(O)c(C#N)c1` [Form 6, 3-bromo-5-[(2-ethylimidazo[1,2-a]pyridin-3-yl)carbonyl]-2-hydroxybenzonitrile], the “DVS (85% RH)” value in data set [1] is recorded as 0.35%. Moreover, the Solubility (commonly how much of the substance goes into solution per volume) came to 4.6 µg/mL (≈ 12.4 µM) in data set [2] (0.1N HCl); 45.8 µg/mL (≈ 124 µM) in data set [2] (FaSSIF); 4.4 µg/mL (≈ 11.9 µM) in data set [2] (FeSSIF); 3.3 µg/mL (≈ 8.91 µM) in data set [2] (SGF); 0.4 µg/mL (≈ 1.08 µM) in data set [2] (Water); 0.5 µg/mL (≈ 1.35 µM) in data set [2] (pH 4.5 acetate buffer). In data set [2] (pH 6.8 phosphate buffer), this molecule gave a Solubility of 25.7 µg/mL (≈ 69.4 µM). For the same molecule, the “Appearance / solubility in water” value in data set [2] is “reduced solubility in water”. Further, the “Crystal form after slurry in purified water (XRPD)” value in data set [3] is listed as “transformed into Form 1”. In addition, the “XRPD pattern after stress storage” value in data set [4] was “substantially similar to those received at the initial time”.
As for `CCc1nc2ccccn2c1C(=O)c1cc(Br)c(O)c(C#N)c1` [Form 12, 3-bromo-5-[(2-ethylimidazo[1,2-a]pyridin-3-yl)carbonyl]-2-hydroxybenzonitrile], the “DVS (85% RH)” value in data set [1] is given as 8.07%.
Consider `CCc1nc2ccccn2c1C(=O)c1cc(Br)c(O)c(C#N)c1` [Form 9, 3-bromo-5-[(2-ethylimidazo[1,2-a]pyridin-3-yl)carbonyl]-2-hydroxybenzonitrile], for which, in data set [1], the “DVS (85% RH)” value worked out at 0.29%.
The same measure, in the same setting: under `CCc1nc2ccccn2c1C(=O)c1cc(Br)c(O)c(C#N)c1` [Form 10, 3-bromo-5-[(2-ethylimidazo[1,2-a]pyridin-3-yl)carbonyl]-2-hydroxybenzonitrile] stands 2.37%.
Turning to `CCc1nc2ccccn2c1C(=O)c1cc(Br)c(O)c(C#N)c1` [Form 11, 3-bromo-5-[(2-ethylimidazo[1,2-a]pyridin-3-yl)carbonyl]-2-hydroxybenzonitrile], the “DVS (85% RH)” value in data set [1] was found to be 6.18%. Also, the Solubility in data set [2] (0.1N HCl) came out at 6.8 µg/mL (≈ 18.4 µM); in data set [2] (FaSSIF), 28.4 µg/mL (≈ 76.7 µM); in data set [2] (FeSSIF) it was 3.4 µg/mL (≈ 9.18 µM); in data set [2] (SGF), 5.8 µg/mL (≈ 15.7 µM); in data set [2] (Water), 1914.5 µg/mL (≈ 5170 µM); in data set [2] (pH 4.5 acetate buffer) it was 1.7 µg/mL (≈ 4.59 µM). The molecule further returned a Solubility in data set [2] (pH 6.8 phosphate buffer) of 31.0 µg/mL (≈ 83.7 µM). The “Appearance / solubility in water” value in data set [2] is on record as “nearly clear solution in water”. The “XRPD pattern after stress storage” value in data set [4] was “substantially similar to those received at the initial time”.
Take `CCc1nc2ccccn2c1C(=O)c1cc(Br)c(O)c(C#N)c1` [Form 8, 3-bromo-5-[(2-ethylimidazo[1,2-a]pyridin-3-yl)carbonyl]-2-hydroxybenzonitrile]: the “DVS (85% RH)” value in data set [1] was determined as 4.66%. Further, the Solubility came to 5.3 µg/mL (≈ 14.3 µM) in data set [2] (0.1N HCl); 14.5 µg/mL (≈ 39.2 µM) in data set [2] (FaSSIF); 8.6 µg/mL (≈ 23.2 µM) in data set [2] (FeSSIF); 3.5 µg/mL (≈ 9.45 µM) in data set [2] (SGF); 0.5 µg/mL (≈ 1.35 µM) in data set [2] (Water); 0.6 µg/mL (≈ 1.62 µM) in data set [2] (pH 4.5 acetate buffer). Moreover, the Solubility in data set [2] (pH 6.8 phosphate buffer) stood at 17.9 µg/mL (≈ 48.4 µM). The “Appearance / solubility in water” value in data set [2] was “reduced solubility in water”. The “Crystal form after slurry in purified water (XRPD)” value in data set [3] is “transformed into Form 1”. The “XRPD pattern after stress storage” value in data set [4] is on record as “substantially similar to those received at the initial time”.
Take `CCc1nc2ccccn2c1C(=O)c1cc(Br)c(O)c(C#N)c1` [Form 7, 3-bromo-5-[(2-ethylimidazo[1,2-a]pyridin-3-yl)carbonyl]-2-hydroxybenzonitrile]: the “DVS (85% RH)” value in data set [1] worked out at 1.93%.
